Assay results published in EP0018104A2, “Tetrahydroisoquinolines, their production and the compounds and pharmaceutical compositions containing them for use in the prevention or treatment of hypertension” (Takeda Chemical Industries, Ltd., priority 1979, dated 1980).
Read-outs that look alike come from different tables or passages of the source.

What was measured:
[1] = target: T1, angiotensin I converting enzyme (ACE) (Oryctolagus cuniculus, UniProt P12822); assay: Inhibition of angiotensin I converting enzyme (HHL substrate, hippuric acid colorimetry, modified Cushman method); assay type: biochemical, albino rabbit; conditions: ACE from rabbit lung, 37°C, one hour, read-out: Inhibitory Activity on ACE (%); for inhibition at 1 µM: Concentration 1 µM; for inhibition at 10 µM: Concentration 10 µM
T1 construct: prepared from the lungs of albino rabbit according to the method described by Wallace et al; from tissue; host or cells: lungs of albino rabbit
T1 sequence (P12822 34-1310): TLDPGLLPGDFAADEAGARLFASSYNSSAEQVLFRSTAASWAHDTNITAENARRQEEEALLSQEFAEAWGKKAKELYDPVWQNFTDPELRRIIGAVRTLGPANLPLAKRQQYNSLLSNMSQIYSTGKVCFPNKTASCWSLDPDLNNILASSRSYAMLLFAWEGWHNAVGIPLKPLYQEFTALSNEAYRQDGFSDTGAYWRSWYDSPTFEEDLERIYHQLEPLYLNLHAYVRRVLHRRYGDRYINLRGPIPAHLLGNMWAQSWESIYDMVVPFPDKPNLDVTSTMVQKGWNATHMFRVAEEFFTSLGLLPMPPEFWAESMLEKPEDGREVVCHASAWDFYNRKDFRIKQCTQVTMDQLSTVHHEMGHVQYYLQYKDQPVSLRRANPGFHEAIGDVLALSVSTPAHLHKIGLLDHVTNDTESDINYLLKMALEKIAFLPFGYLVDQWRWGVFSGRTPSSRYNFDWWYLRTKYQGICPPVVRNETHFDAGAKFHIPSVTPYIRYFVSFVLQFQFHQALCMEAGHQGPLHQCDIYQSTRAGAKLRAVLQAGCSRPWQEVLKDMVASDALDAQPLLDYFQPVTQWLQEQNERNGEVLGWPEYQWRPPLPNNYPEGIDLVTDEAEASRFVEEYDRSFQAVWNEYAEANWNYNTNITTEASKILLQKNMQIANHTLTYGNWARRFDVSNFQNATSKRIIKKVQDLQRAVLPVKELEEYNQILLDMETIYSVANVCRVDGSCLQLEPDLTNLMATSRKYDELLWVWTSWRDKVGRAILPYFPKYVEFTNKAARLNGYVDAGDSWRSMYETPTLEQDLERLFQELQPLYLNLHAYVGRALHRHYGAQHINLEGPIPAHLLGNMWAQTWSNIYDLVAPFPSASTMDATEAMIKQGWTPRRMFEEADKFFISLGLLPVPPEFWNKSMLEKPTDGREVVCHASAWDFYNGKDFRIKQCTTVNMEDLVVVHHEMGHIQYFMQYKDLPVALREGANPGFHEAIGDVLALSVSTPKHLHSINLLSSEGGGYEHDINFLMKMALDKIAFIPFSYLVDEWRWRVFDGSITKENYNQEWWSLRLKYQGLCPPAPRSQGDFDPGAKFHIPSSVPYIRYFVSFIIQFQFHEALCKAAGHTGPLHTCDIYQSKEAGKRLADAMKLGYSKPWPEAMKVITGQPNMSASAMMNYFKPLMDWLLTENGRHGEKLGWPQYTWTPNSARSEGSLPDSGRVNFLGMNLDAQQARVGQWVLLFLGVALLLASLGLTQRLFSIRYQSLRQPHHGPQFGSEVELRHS
Protocol: Inhibitions of Angiotensin I Converting Enzyme by the Compounds of this Invention.
The experiment was conducted in accordance with a modification of the method described by Cushman et al. [Biochemical Pharmacology, Vol. 20, p1637(1971)] using an angiotensin I converting enzyme (ACE) prepared from the lungs of albino rabbit according to the method described by Wallace et al. [American Journal of Physiology, Vol 234, page R141(1978)]. That is, using hippuryl-L-histidyl-L-leucin (HHL) as the substrate, the ACE inhibitory activity was determined in terms of percentage inhibitation on the amount of hippurie acid produced by ACE when the present compound was added. A solution of the compound of the present invention dissolved in an 0.02 to 2% dimethyl sulfoxide-500 mMpotassium phosphate buffer solution (pH 8.3, containing 300 mM sodium chloride) was added to 100 µℓ of ACE (protein concentration, 20 mg/mℓ) and 100 µℓ of 1.25 mM HHL. In this experiment a potassium phosphate buffer solution containing dimethyl sulfoxide at a concentration equal to that of the test solution was used as a control. After incubating the solution at 37°C for one hour, 150 µℓ of 1N hydrochloric acid were added to the solution to terminate the reaction. After 1 mℓ of ethyl acetate was added, the solution was centrifuged at 3000 r.p.m. for 10 minutes. An 0.5 mℓ aliquot was separated from the ethyl acetate layer and dried at a temperature below 50°C under a nitrogen. gas stream. The residue was mixed with mℓ of 1M aqueous sodium chloride and the mixture was subjected to colorimetry at a wavelength of 228 nm.

[2] = tested on: Hypertensive Activity of Angiotensin I; assay: Effect against hypertensive activity of angiotensin I in anaesthetized-cannulated rats after oral dosing; assay type: in vivo, Male rats (Sprague-Dawley); conditions: Rattus norvegicus, 138 µM/kg orally, corrected by angiotensin II response
Protocol: Male rats (Sprague-Dawley) weighing 230 to 350 g, which were fed under free access to drinking water and feeds, were used as experimental animals. The rats were anaesthetized with intraperitoneal administration of pentobarbital sodium (50 mg/kg) on the day before the test day, and a polyethylene tube was inserted into each femoral artery for measurement of blood pressare and the femoral vein for injection of angiotensin I and II, and then the tubes were fixed.
On the test day, an average blood pressure in the control phase was recorded on an electric haemedynamemeter (MP-4T model manufactured by Nippon Koden, Japan) and, thereafter, angiotensin I and then angionensin II were injected through the femoral vein at a dose of […] and 100 ng/kg, respectively, to measure the hypertensive activity. Then, 138 µM/kg of the compound of this invention were administrated orally as an aqueous solution or an aqueous gum arabic suspension, […], angiotensin I and II were injected repeatedly to trace hypertensive reactions. In calculating the percentage inhibition to the hypertensive activity of angiotensin 1, the percentage inhibitory value was corrected based on the variation with time in the hypertensive reaction by anziotensin II.

[3] = 20 min, After 20 min, read-out: Percent Inhibition (%) against Hyper-tensive Reaction by Angiotensin I After 20 min
[4] = 1 h, After 60 min, read-out: Percent Inhibition (%) against Hyper-tensive Reaction by Angiotensin I After 60 min
[5] = 2 h, After 120 min, read-out: Percent Inhibition (%) against Hyper-tensive Reaction by Angiotensin I After 120 min

Row | Structure (SMILES) | inhibition at 1 µM [1] [%] | inhibition at 10 µM [1] [%] | inhibition in vivo at 138 µM, 138 µmol/kg [2, 3] [%] | inhibition in vivo at 138 µM, 138 µmol/kg [2, 4] [%] | inhibition in vivo at 138 µM, 138 µmol/kg [2, 5] [%]
1 | CC(=O)SCC(C)C(=O)N1Cc2cc(O)c(O)cc2C[C@H]1C(=O)O (stereo partly drawn) [Example 1, (3S)-2-(3-acetylthio-2-methylpropionyl)-6,7-dihydroxy-1,2,3,4-tetrahydroisoquinoline-5-carboxylie aeid] | 23 | 87 |  |  | 
2 | CC(=O)SCC(C)C(=O)N1Cc2cc(C(C)(C)C)ccc2CC1C(=O)O (centres unmarked) [Example 3, 2-(3-acetylthio-2-methylpropionyl)-7-tert-utyl-1,2,3,4-tetrahydroisoquinoline-3-carboxylic acid] |  |  | 86 | 94 | 90
3 | CC(=O)SCC(C)C(=O)N1Cc2cc3c(cc2CC1C(=O)O)CCCC3 (centres unmarked) [Example 4] |  |  | 90 | 79 | 63
4 | CC(=O)SCC(C)C(=O)N1[C@H](C)c2cc(O)c(O)cc2C[C@H]1C(=O)O (some centres unmarked) [Example 5, (M, 3S)-2-(5-acetylthio-2-methylpropionyl)-6,7-dihycroxy-1-methyl-1,2,3,4-tetrahydroisquinoline-3-carboxylie acid] |  |  | 84 | 98 | 96
5 | COc1cc2c(cc1OC)CN(C(=O)C(C)CSC(C)=O)C(C(=O)O)C2 (centres unmarked) [Example 6, 2-(3-acetylthio-2-methylpropionyl)-6,7-dimethoxy-1,2,3,4-tetrahydroisoquinoline-3-carboxylic aeid] | 62 | 99 |  |  | 
6 | CC(=O)SCC(C)C(=O)N1Cc2cc(C)ccc2CC1C(=O)O (centres unmarked) [Example 7] | 63 | 88 |  |  | 
7 | COc1cc2c(cc1O)CN(C(=O)C(C)CSC(C)=O)C(C(=O)O)C2 (centres unmarked) [Example 14, 2-(3-acetylthio-2-methylpropionyl)-7-hydroxy-6-methoxy-1,2,3,4-tetrahydroisoquinoline-3-carbxylic acid] | 33 | 90 |  |  | 
8 | CC(=O)SCC(C)C(=O)N1Cc2ccc(O)cc2CC1C(=O)O (centres unmarked) [Example 19, 2-(3-acetylthio-2-methylpropionyl)-6-hydroxy-1,2,3,4-tetrahydroisoquinoline-3-carboxylic acid] | 61 | 98 |  |  | 
9 | COc1ccc2c(c1)CN(C(=O)C(C)CSC(C)=O)C(C(=O)O)C2 (centres unmarked) [Example 23, 2-(3-acetylthio-2-methylpropionyl)-7-methoxy-1,2, 3.4-tetrahydroisoquinoline-3-carboxylic acid] |  |  | 80 | 82 | 87
10 | CC(=O)SCC(C)C(=O)N1Cc2cc(CC(C)C)ccc2CC1C(=O)O (centres unmarked) [Example 34, 2-(3-acetylthio-2-methylpropionyl)-7-isobutyl-1,2,3,4-tetrahydroisoquinoline-3-carboxylic acid] | 63 | 94 |  |  | 
11 | CC(=O)SCC(C)C(=O)N1Cc2cc3c(cc2C[C@H]1C(=O)O)OCO3 (stereo partly drawn) [Example 38, (3S)-2-(3-acetylthio-2-methylpropionyl)-6,7-methylenedioxy-1,2,3,4-tetrahydroisoquinoline-3-carboxylic acid] | 83 | 100 |  |  | 
12 | CC(=O)SCC(C)C(=O)N1Cc2cc(N3CCCC3)ccc2CC1C(=O)O (centres unmarked) [Example 43] |  |  | 100 | 95 | 87
13 | CC(CS)C(=O)N1Cc2cc(C(C)(C)C)ccc2C[C@H]1C(=O)O (stereo partly drawn) [Example 51, (3S)-7-tert-butyl-2-(3-mercapto-2-methylproplonyl)-1,2,3,4-tetrahydroisoquinoline-3-carboxylic acid] |  |  | 100 | 100 | 78
14 | CC(=O)SCC(CSC(C)=O)C(=O)N1Cc2cc(O)c(O)cc2C[C@H]1C(=O)O [Example 56, (S)-2-(3-acetylthio-2-acetylthiomethyl-propionyl)-6,7-dihydroxy-1,2,3,4-tetrahydroisoquinoline-3-carboxylic acid] |  |  | 80 | 84 | 69
15 | CC(=O)SCC(CSC(C)=O)C(=O)N1Cc2cc3c(cc2CC1C(=O)O)CCCC3 (centres unmarked) [Example 58, 2-(3-acetylthio-2-acetylthiomethylpropionyl)-1,2,3,4,6,7,8,9-octahydrobenzo[g]isoquinoline-3--carboxylic aeid] |  |  | 80 | 78 | 66
16 | CC(=O)SCC(CSC(C)=O)C(=O)N1Cc2ccc(O)cc2CC1C(=O)O (centres unmarked) [Example 60, 2-(3-acetylthio-2-acetylthiomethylpropionyl)-6-hydroxy-1,2,3,4-tetrahydroisoquinoline-3-carboxylic acid] |  |  | 82 | 77 | 71
17 | CC(=O)SCC(CSC(C)=O)C(=O)N1Cc2cc(C(C)C)ccc2CC1C(=O)O (centres unmarked) [Example 61, 2-(3-aeetylthio-2-acetylthiomethylpropionyl)-7-isopropyl-1,2,3,4-tetrahydroisoquinoline-3-carboxylic acid] |  |  | 78 | 84 | 58
18 | O=C(O)C1Cc2cc3c(cc2CN1C(=O)C(CS)CS)OCO3 (centres unmarked) [Example 69, 2-(3-mercapto-2-mercapthylpropionyl)-6,7-methylenedioxy-1,2,3,4-tetrahydroisooquinoline-3-carboxylic acid] |  |  | 95 | 77 | 76
